Assay: In vitro metabolic stability in pooled human liver S9 fraction
Format: in vitro ADME
Details: for remaining at 1 h, 3 µM / half-life at 3 µM: pH 7.4, HLS9 1 mg/mL, 3 µM compound; for remaining at 1 h, 3 µM: cofactors NADPH, UDPGA, PAPS, GSH, 37 °C, read-out: % remaining after 60 min; for half-life at 3 µM: with cofactors, one-phase decay fit, read-out: in vitro t½ (estimated); for microsomal CLint at 3 µM: pH 7.4, HLS9, CLint,u = k/(fu,S9 × [S9]), read-out: CLint,u (unbound intrinsic clearance)
Method: Metabolic stability was assessed using pooled HLS9 and MLS9 fractions. The S9 fractions (20 mg/mL) were diluted to 1 mg/mL with 0.1 M potassium phosphate buffer (pH 7.4). Stock solutions of KB-1517 and KB-1518 (10 mM in DMSO) were diluted in 50% aqueous acetonitrile to prepare working solutions (120 µM). A Tris mix buffer containing 1 M Tris-HCl (pH 7.4), 10 mM MgCl2, and 125 µg/mL alamethicin was prepared. A combined cofactor solution was prepared in 0.1 M potassium phosphate buffer (pH 7.4): 10 mM NADPH, 5 mM UDPGA, 1 mM PAPS, and 25 mM GSH.
The incubation mixture (final volume 200 µL) contained: 125 µL of deionized water, 40 µL of Tris mix buffer, 10 µL of 20 mg protein/mL S9 fraction (final concentration 1 mg protein/mL), and 5 µL of the test compound working solution (final concentration 3 µM). The final concentrations of DMSO and acetonitrile were 0.03% and 1%, respectively. The mixture was pre-incubated at 37 °C for 5 min in a shaking water bath. The reaction was initiated by adding 20 µL of the combined cofactor solution (final concentrations: 1 mM NADPH, 0.5 mM UDPGA, 0.1 mM PAPS, 2.5 mM GSH). Control incubations were performed without the cofactor mixture (replaced with buffer) and at 0 min (quenched immediately after adding cofactors). Incubations were carried out at 37 °C for 0, 15, 30, and 60 min (for stability) or 60 min (for metabolite ID). Reactions were terminated by adding 200 µL of ice-cold acetonitrile containing IS (diclofenac).
Terminated samples were sonicated (5 min), vortexed (1500 rpm, 5 min), and centrifuged (3000 rpm, 20 min, 4 °C). An aliquot (150 µL) of the supernatant was transferred to a 96-well plate for LC-MS/MS analysis as described in Section 2.6.2.
Noncompartmental analysis (NCA) was performed using PKSolver to determine pharmacokinetic parameters from the plasma concentration-time data. Parameters included: maximum plasma concentration (Cmax), time to reach Cmax (tmax), terminal elimination half-life (t1/2), area under the plasma concentration-time curve from time zero to the last measurable concentration (AUClast), area under the plasma concentration-time curve extrapolated to infinity (AUCinf), total body clearance (CL), and volume of distribution at steady state (Vss). Oral bioavailability (F) was calculated as: F(%) = (AUCinf,PO/AUCinf,IV)× (DoseIV/DosePO)×100. Due to the anomalous profile of KB-1517, AUClast was used for its F calculation, and some parameters (t½, CL, Vss for IV; AUCinf for PO) could not be reliably determined (ND). The metabolic rate constant (k) was determined by fitting the in vitro metabolic stability data to a one-phase decay equation via nonlinear regression using GraphPad Prism (Version 10, GraphPad Software, Boston, MA, USA). The in vitro t1/2 was calculated from the equation t1/2 = ln(2)/k. Subsequently, the unbound intrinsic clearance (CLint,u) was calculated as follows: CLint,u = k/(fu,S9 × [S9]), where fu,S9 is the fraction unbound in the S9 incubation and [S9] is the S9 protein concentration.
The metabolic stability of KB-1517 and KB-1518 was evaluated by incubating the compounds (3 µM) with HLS9 and MLS9 fractions (1 mg/mL) in the presence of a comprehensive set of phase I and phase II cofactors (NADPH, UDPGA, PAPS, and GSH) for up to 60 min.

Row | Structure (SMILES) | remaining at 1 h, 3 µM [%] | half-life at 3 µM [h] | microsomal CLint at 3 µM [µL/min/mg]
1 | CN(C)CCn1c(=O)c2nc(-c3ccc(C(F)(F)F)cc3)oc2c2ccccc21 [KB-1517, 5-(2-(dimethylamino)ethyl)-2-(4-(trifluoromethyl)phenyl)oxazolo[4,5-c]quinolin-4(5H)-one] | 81.9 ± 0.7 | 3.09 | 19.6
2 | CN(C)CCOc1nc2ccccc2c2oc(-c3ccc(C(F)(F)F)cc3)nc12 [KB-1518, N,N-dimethyl-2-((2-(4-(trifluoromethyl)phenyl)oxazolo[4,5-c]quinolin-4-yl)oxy)ethan-1-amine] | 74.2 ± 2.5 | 1.88 | 101

Source: article PMC12473689, “Drug Metabolism and Pharmacokinetics of Oxazolo[4,5-c]quinoline Analogs as Novel Interleukin-33 Inhibitors” (Pharmaceutics, 2025)
